These results are taken from patent US20260062422A1 (Halda Therapeutics OpCo, Inc., priority 2022, published 2026).

For experiment [1], the system named is VCaP cells. The experiment in a line: Cellular growth inhibition assay for VCaP cells, CellTiter-Glo. Format: cell-based, human. The settings on record: 72 hours treatment, CellTiter-Glo 2.0. As to the method: VCaP cells were purchased from American Type Cell Culture (ATCC Cat #CRL2876) and then seeded on poly-D-lysine coated, black clear-bottom 384-well plates at 5000/well in 25 μL Dulbecco's Modified Eagle Medium (DMEM) supplemented with 10% w/w Fetal bovine serum (FBS) and 1% w/w Pen-Strep. Pen-Strep is a commercially available mixture of penicillin G and streptomycin, which is used in mammalian cell culture media to prevent bacterial contamination. Dulbecco's Modified Eagle Medium (DMEM) supplemented with 10% w/w fetal bovine serum (FBS) and 1% w/w Pen-Strep is herein referred to as Treatment Medium. Following seeding of cells in the plates, the plates were spun at 300×g for 30 seconds, then equilibrated to room temperature for 30 minutes, and then deposited in a humidified tissue culture incubator maintained at 37° C. with 5% CO2.
(§1) At 24 hours after seeding of the cells, dilutions of test compound were prepared in DMSO and dissolved in Treatment Medium, to achieve a final DMSO concentration of 0.5% w/w, thereby providing the Test Compound Solution. A 25 μL aliquot of the Test Compound Solution was added to cells in the well plates. An equal volume of a solution containing DMSO and Treatment Medium was used as a negative control. Following treatment of cells with Test Compound Solution or said equal volume of a solution containing DMSO and Treatment Medium, the plates were spun at 300×g for 30 seconds, and then left in an incubator for 72 hours.
(§2) At the end of the treatment duration, cell viability was quantified with CellTiter-Glo 2.0 reagent (Promega Cat #G9243). For this purpose, plates were equilibrated to room temperature for 30 minutes, and then 25 μL of CellTiter-Glo 2.0 reagent was added to cells in the plate wells. Plates were then agitated on a shaker for two minutes at 500 rpm and subsequently incubated at room temperature for 10 minutes. Following incubation, the plates were spun at 3000×g for 30 seconds, then sealed with an optical adhesive cover, and luminescence readings were measured with an EnVision Plate Reader.
(§3) Data was normalized using zero luminescence for baseline. A four-parameter non-linear regression curve fit was applied to dose-response data in GraphPad Prism data analysis software to determine the half-maximal growth inhibitory concentration (GI50) for each test compound.
(In general: ATP-based viability assays read luminescence as a measure of living cells.)

For experiment [2], the system named is T47D cells. The experiment in a line: Cellular growth inhibition assay for T47D cells, CellTiter-Glo. Format: cell-based, human. Particulars: 72 hours treatment, CellTiter-Glo 2.0 cell viability. The procedure: T47D cells were purchased from American Type Cell Culture (ATCC Cat #HTB-133) and then seeded on poly-D-lysine coated, black clear-bottom 384-well plates at 3000/well in 25 μL Dulbecco's Modified Eagle Medium (DMEM) supplemented with 10% w/w Fetal bovine serum (FBS), 0.2 units/mL recombinant human insulin (Gibco Cat #12585014), and 1% w/w Pen-Strep. Pen-Strep is a commercially available mixture of penicillin G and streptomycin, which is used in mammalian cell culture media to prevent bacterial contamination. Dulbecco's Modified Eagle Medium (DMEM) supplemented with 10% w/w fetal bovine serum (FBS), 0.2 units/mL recombinant human insulin, and 1% w/w Pen-Strep is herein referred to as Treatment Medium. Following seeding of cells in the plates, the plates were spun at 300×g for 30 seconds, then equilibrated to room temperature for 30 minutes, and then deposited in a humidified tissue culture incubator maintained at 37° C. with 5% CO2.
as §1
as §2, with “Reader (Perkin Elmer).” for “Reader.”
as §3

A word on the GI50: it is the concentration at which growth is held to half of that of the control. Take `Cc1sc2c(c1C)C(c1ccc(C[C@@H]3CC[C@]4(C3)CN(c3ncc(C(=O)N[C@H]5C(C)(C)[C@H](Oc6ccc(C#N)c(Cl)c6)C5(C)C)cn3)CCO4)cc1)=N[C@@H](Cc1ncco1)c1nnc(C)n1-2` [Compound I-308]: the GI50 in experiment [1] (Homo sapiens, VCaP, 72 h) was > 3000 nM; in experiment [2] (Homo sapiens, T47D, 72 h) it was > 3000 nM.

With `Cc1sc2c(c1C)C(c1ccc(C[C@H]3CC[C@]4(C3)CN(c3ncc(C(=O)N[C@H]5C(C)(C)[C@H](Oc6ccc(C#N)c(Cl)c6)C5(C)C)cn3)CCO4)cc1)=N[C@@H](Cc1ncco1)c1nnc(C)n1-2` [Compound I-310], the concentration for 50% growth inhibition (GI50) in experiment [1] (Homo sapiens, VCaP, 72 h) is < 500 nM; in experiment [2] (Homo sapiens, T47D, 72 h) it was < 500 nM.

For the compound `Cc1sc2c(c1C)C(c1ccc(C[C@H]3CC[C@@H]4CN(c5ncc(C(=O)N[C@H]6C(C)(C)[C@H](Oc7ccc(C#N)c(Cl)c7)C6(C)C)cn5)CCN4C3)cc1)=N[C@@H](Cc1ncco1)c1nnc(C)n1-2` [Compound I-304], the GI50 was < 500 nM in experiment [1] (Homo sapiens, VCaP, 72 h) and > 3000 nM in experiment [2] (Homo sapiens, T47D, 72 h).

Turning to `Cc1sc2c(c1C)C(c1ccc(C(=O)N3CCC[C@@H](Cc4ncc(C(=O)N[C@H]5C(C)(C)[C@H](Oc6ccc(C#N)c(Cl)c6)C5(C)C)cn4)C3)cc1)=N[C@@H](Cc1ncco1)c1nnc(C)n1-2` [Compound I-319], the GI50 in experiment [1] was 1500 to 3000 nM; in experiment [2], > 3000 nM.

Regarding `Cc1sc2c(c1C)C(c1ccc(CCO[C@H]3CCCN(c4ncc(C(=O)N[C@H]5C(C)(C)[C@H](Oc6ccc(C#N)c(Cl)c6)C5(C)C)cn4)C3)cc1)=N[C@@H](Cc1ncco1)c1nnc(C)n1-2` [Compound I-323], the GI50 in experiment [1] (Homo sapiens, VCaP, 72 h) is < 500 nM; in experiment [2] (Homo sapiens, T47D, 72 h), < 500 nM.

Turning to `Cc1sc2c(c1C)C(c1ccc(CCC[C@H]3CCCN(c4ncc(C(=O)N[C@H]5C(C)(C)[C@H](Oc6ccc(C#N)c(Cl)c6)C5(C)C)cn4)C3)cc1)=N[C@@H](Cc1ncco1)c1nnc(C)n1-2` [Compound I-321], the GI50 is < 500 nM in experiment [1] (Homo sapiens, VCaP, 72 h) and < 500 nM in experiment [2] (Homo sapiens, T47D, 72 h).

`Cc1sc2c(c1C)C(c1ccc(C[C@@H]3CC[C@@H]4CN(c5ncc(C(=O)N[C@H]6C(C)(C)[C@H](Oc7ccc(C#N)c(Cl)c7)C6(C)C)cn5)CCN4C3)cc1)=N[C@H](Cc1ncco1)c1nnc(C)n1-2` [Compound I-307]: the concentration for 50% growth inhibition (GI50) in experiment [1] (Homo sapiens, VCaP, 72 h) is < 500 nM; in experiment [2] (Homo sapiens, T47D, 72 h) it was < 500 nM.

For `Cc1sc2c(c1C)C(c1ccc(C[C@@H]3CC[C@@H]4CN(c5ncc(C(=O)N[C@H]6C(C)(C)[C@H](Oc7ccc(C#N)c(Cl)c7)C6(C)C)cn5)CCN4C3)cc1)=C[C@@H](Cc1ncco1)c1nnc(C)n1-2` [Compound I-305], the 50% growth inhibitory concentration (GI50) in experiment [1] (Homo sapiens, VCaP, 72 h) is > 3000 nM; in experiment [2] (Homo sapiens, T47D, 72 h), 500 to 1500 nM.

Consider `Cc1sc2c(c1C)C(c1ccc(CCC[C@@H]3CCCN(c4ncc(C(=O)N[C@H]5C(C)(C)[C@H](Oc6ccc(C#N)c(Cl)c6)C5(C)C)cn4)C3)cc1)=N[C@@H](Cc1ncco1)c1nnc(C)n1-2` [Compound I-320], for which the GI50 is < 500 nM in experiment [1] (Homo sapiens, VCaP, 72 h) and < 500 nM in experiment [2] (Homo sapiens, T47D, 72 h).

For `Cc1sc2c(c1C)C(c1ccc(C[C@@H]3CC[C@@]4(C3)CN(c3ncc(C(=O)N[C@H]5C(C)(C)[C@H](Oc6ccc(C#N)c(Cl)c6)C5(C)C)cn3)CCO4)cc1)=N[C@@H](Cc1ncco1)c1nnc(C)n1-2` [Compound I-309], the GI50 in experiment [1] (Homo sapiens, VCaP, 72 h) was > 3000 nM; in experiment [2] (Homo sapiens, T47D, 72 h), > 3000 nM.

For `Cc1sc2c(c1C)C(c1ccc(OC3CCN(C4CCN(c5ncc(C(=O)N[C@H]6C(C)(C)[C@H](Oc7ccc(C#N)c(Cl)c7)C6(C)C)cn5)CC4)CC3)cc1)=N[C@@H](Cc1ncco1)c1nnc(C)n1-2` [Compound I-313], the GI50 in experiment [1] (Homo sapiens, VCaP, 72 h) was < 500 nM; in experiment [2] (Homo sapiens, T47D, 72 h) it was < 500 nM.

Consider `Cc1sc2c(c1C)C(c1ccc(C(=O)N3CCC[C@@H](Cc4ncc(C(=O)N[C@H]5C(C)(C)[C@H](Oc6ccc(C#N)c(Cl)c6)C5(C)C)cn4)C3)cc1)=N[C@@H](Cc1ncco1)c1nnc(C)n1-2` [Compound I-318], for which the GI50 is > 3000 nM in experiment [1] (Homo sapiens, VCaP, 72 h) and > 3000 nM in experiment [2] (Homo sapiens, T47D, 72 h).

As for `Cc1sc2c(c1C)C(c1ccc(C3CC3C3CC4(CCN(c5cnc(C(=O)N[C@H]6C(C)(C)[C@H](Oc7ccc(C#N)c(Cl)c7)C6(C)C)cn5)CC4)C3)cc1)=NC(Cc1ncco1)c1nnc(C)n1-2` (some centres unmarked) [Compound I-538], in experiment [2], the GI50 was > 3000 nM.

Consider `Cc1sc2c(c1C)C(c1ccc(N3CC4(C3)CN(c3cnc(C(=O)N[C@H]5C(C)(C)[C@H](Oc6ccc(C#N)c(Cl)c6)C5(C)C)cn3)C4)cc1)=N[C@@H](C)c1nnc(C)n1-2` [Compound I-517], for which the concentration for 50% growth inhibition (GI50) in experiment [2] (Homo sapiens, T47D, 72 h) lay within 1500 to 3000 nM.

Turning to `Cc1sc2c(c1C)C(c1ccc([C@H]3C[C@@H]3CC3CCCN(c4ncc(C(=O)N[C@H]5C(C)(C)[C@H](Oc6ccc(C#N)c(Cl)c6)C5(C)C)cn4)C3)cc1)=N[C@@H](Cc1ncco1)c1nnc(C)n1-2` (some centres unmarked) [Compound I-492], in experiment [2], the GI50 was > 3000 nM.

Turning to `Cc1sc2c(c1C)C(c1ccc(CNC(=O)Cc3ncc(C(=O)N[C@H]4C(C)(C)[C@H](Oc5ccc(C#N)c(Cl)c5)C4(C)C)cn3)cc1)=N[C@@H](Cc1ncco1)c1nnc(C)n1-2` [Compound I-316], the GI50 was < 500 nM in experiment [1] (Homo sapiens, VCaP, 72 h) and 500 to 1500 nM in experiment [2] (Homo sapiens, T47D, 72 h).

In the case of `Cc1sc2c(c1C)C(c1ccc(CC3CC4(CCN(c5cnc(C(=O)N[C@H]6C(C)(C)[C@H](Oc7ccc(C#N)c(Cl)c7)C6(C)C)cn5)CC4)C3)cc1)=NC1(CC1)c1nnc(C)n1-2` [Compound I-520], the GI50 in experiment [2] (Homo sapiens, T47D, 72 h) was < 500 nM.

Turning to `Cc1sc2c(c1C)C(c1ccc(N3CCC[C@H](C(=O)N4CCCC4c4ncc(C(=O)N[C@H]5C(C)(C)[C@H](Oc6ccc(C#N)c(Cl)c6)C5(C)C)cn4)C3)cc1)=N[C@H](Cc1ncco1)c1nnc(C)n1-2` (some centres unmarked) [Compound I-315], the GI50 in experiment [1] (Homo sapiens, VCaP, 72 h) was > 3000 nM; in experiment [2] (Homo sapiens, T47D, 72 h), > 3000 nM.

As to `Cc1sc2c(c1C)C(c1ccc([C@H]3C[C@@H]3CC3CCCN(c4ncc(C(=O)N[C@H]5C(C)(C)[C@H](Oc6ccc(C#N)c(Cl)c6)C5(C)C)cn4)C3)cc1)=NC(Cc1ncco1)c1nnc(C)n1-2` (some centres unmarked) [Compound I-494], the GI50 in experiment [2] was < 500 nM.

Consider `Cc1sc2c(c1C)C(c1ccc(C#CC3CC(Cc4ncc(C(=O)N[C@H]5C(C)(C)[C@H](Oc6ccc(C#N)c(Cl)c6)C5(C)C)cn4)C3)cc1)=NC(Cc1ncco1)c1nnc(C)n1-2` (some centres unmarked) [Compound I-559], for which, in experiment [2], the GI50 lay in the range of 500 to 1500 nM.

In experiment [2], `Cc1sc2c(c1C)C(c1ccc([C@H]3C[C@@H]3CC3CCCN(c4ncc(C(=O)N[C@H]5C(C)(C)[C@H](Oc6ccc(C#N)c(Cl)c6)C5(C)C)cn4)C3)cc1)=N[C@@H](Cc1ncco1)c1nnc(C)n1-2` (some centres unmarked) [Compound I-493] came in with a GI50 of 500 to 1500 nM.

For `Cc1sc2c(c1C)C(c1ccc(N3CC(C4CCCC(Cc5ncc(C(=O)N[C@H]6C(C)(C)[C@H](Oc7ccc(C#N)c(Cl)c7)C6(C)C)cn5)C4)C3)cc1)=N[C@@H](Cc1ncco1)c1nnc(C)n1-2` (some centres unmarked) [Compound I-582], the concentration for 50% growth inhibition (GI50) in experiment [2] was < 500 nM.

`Cc1sc2c(c1C)C(c1ccc(C3CC3C3CC4(CCN(c5cnc(C(=O)N[C@H]6C(C)(C)[C@H](Oc7ccc(C#N)c(Cl)c7)C6(C)C)cn5)CC4)C3)cc1)=N[C@@H](C)c1nnc(C)n1-2` (some centres unmarked) [Compound I-536]: in experiment [2], the GI50 is > 3000 nM.

As to `Cc1sc2c(c1C)C(c1ccc(CCO[C@@H]3CCCN(c4ncc(C(=O)N[C@H]5C(C)(C)[C@H](Oc6ccc(C#N)c(Cl)c6)C5(C)C)cn4)C3)cc1)=N[C@@H](Cc1ncco1)c1nnc(C)n1-2` [Compound I-322], the GI50 was < 500 nM in experiment [1] (Homo sapiens, VCaP, 72 h) and < 500 nM in experiment [2] (Homo sapiens, T47D, 72 h).

For the compound `Cc1sc2c(c1C)C(c1ccc(C3CC3C3CC4(CCN(c5cnc(C(=O)N[C@H]6C(C)(C)[C@H](Oc7ccc(C#N)c(Cl)c7)C6(C)C)cn5)CC4)C3)cc1)=NC(Cc1ncco1)c1nnc(C)n1-2` (some centres unmarked) [Compound I-541], the 50% growth inhibitory concentration (GI50) in experiment [2] was < 500 nM.

As for `Cc1sc2c(c1C)C(c1ccc(CC3CC(CC4CCN(c5ncc(C(=O)N[C@H]6C(C)(C)[C@H](Oc7ccc(C#N)c(Cl)c7)C6(C)C)cn5)CC4)C3)cc1)=N[C@@H](C)c1nnc(C)n1-2` (some centres unmarked) [Compound I-512], the GI50 in experiment [2] (Homo sapiens, T47D, 72 h) was < 500 nM.
